Here are results for four compounds from patent US5296367A (priority 1991, dated 1994).

*1 amine or outer side, *2 acyl side, *3 side chain or, on linkers, in order; H or OH if unused. Where a SMILES comes first, the peptide text is derived from it. CO = O=C([*:1])[*:2]

The target of this assay is T1, alkaline proteinase K-16 from Bacillus sp. KSM-K16 (Shouchella clausii, UniProt Q99405).
T1 construct: made in house; host or cells: Bacillus sp; KSM-K16 (own producer strain, culture)
T1 sequence (Q99405 112-380): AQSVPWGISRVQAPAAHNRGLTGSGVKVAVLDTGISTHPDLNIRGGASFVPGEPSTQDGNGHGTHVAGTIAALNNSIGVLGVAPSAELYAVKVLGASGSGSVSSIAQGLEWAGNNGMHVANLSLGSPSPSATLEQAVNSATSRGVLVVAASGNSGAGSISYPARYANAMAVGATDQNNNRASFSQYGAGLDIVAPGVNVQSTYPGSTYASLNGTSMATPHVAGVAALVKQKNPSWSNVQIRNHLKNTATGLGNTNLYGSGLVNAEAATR
The class given is biochemical. Particulars: for Residual activity (%): pH 7.

On to chymostatin, for which the “Effect of inhibitor on activity (in words)” value (shortened to “Effect of inhibitor”) is reported as “inhibited” and the “Residual activity (%)” value is given as 34%.
For `CC(C)[C@H](NC(=O)[C@H](CCCNC(=N)N)NC(=O)N[C@@H](Cc1ccccc1)C(=O)O)C(=O)N[C@H](C=O)CCCNC(=N)N` [Antipain] ({Phe-CO}-Arg-Val-Arg-aldehyde), the “Effect of inhibitor” value is “not inhibited”.
With `O=S(=O)(F)Cc1ccccc1` [PMSF, Phenylmethanesulfonyl fluoride], the “Effect of inhibitor” value was “inhibited” and the “Residual activity (%)” value came out at 1.5%.
As for `O=C(O)CN(CCN(CC(=O)O)CC(=O)O)CC(=O)O` [EDTA, Ethylenediaminetetraacetic acid], the “Effect of inhibitor” value was “not inhibited”.
